Measurements reported in ChEMBL document CHEMBL1129171, “BMS-187257, a potent, selective, and novel heterocyclic 3 adrenergic receptor agonist” (Bioorg Med Chem Lett, 1996).
pEC50, pKi: −log10 of the molar value. Activity calls are given as the source filed them. No cut-off for these calls is given here.

Legend:
[1] = target: Beta-2 adrenergic receptor (Homo sapiens, UniProt P07550); test: biochemical
Description: Compound was tested for its binding affinity against beta2 adrenergic receptor in CHO cell membrane using [125I]iodocyanopindolol as the radioligand.

[2] = target: T1, Beta-3 adrenergic receptor (Homo sapiens, UniProt P13945); test: Compound was tested for its binding affinity against beta3 adrenergic receptor in CHO cell membrane using [125I]iodocyanopindolol as the radioligand.; type: cell membranes
Target sequence in this assay (P13945 whole entry): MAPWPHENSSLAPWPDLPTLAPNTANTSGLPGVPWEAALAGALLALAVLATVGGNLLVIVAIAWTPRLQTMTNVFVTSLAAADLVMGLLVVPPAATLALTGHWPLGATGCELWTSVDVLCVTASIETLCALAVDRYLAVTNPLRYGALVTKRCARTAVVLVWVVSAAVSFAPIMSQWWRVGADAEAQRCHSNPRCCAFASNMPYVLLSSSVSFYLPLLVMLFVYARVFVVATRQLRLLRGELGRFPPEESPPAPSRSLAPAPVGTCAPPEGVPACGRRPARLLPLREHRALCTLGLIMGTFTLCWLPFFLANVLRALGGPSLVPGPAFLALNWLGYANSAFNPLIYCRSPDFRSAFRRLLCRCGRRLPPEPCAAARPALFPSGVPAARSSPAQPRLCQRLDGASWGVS

[3] = target: T1, Beta-3 adrenergic receptor; test: stimulation of adenylyl cyclase activity in CHO-beta-3 adrenergic receptor cell membrane; expressed as maximal cyclase activity as a fraction of (-)-isoproterenol (IA = 1).; type: functional
Target sequence in this assay (P13945 whole entry, looked up): as the sequence (P13945 whole entry) above

[4] = target: T1, Beta-3 adrenergic receptor; test: Compound was tested for its ability to stimulate adenylyl cyclase activity in CHO Beta-3 adrenergic receptor cell membrane.; type: functional
Target sequence in this assay (P13945 whole entry): as above

[5] = target: Beta-1 adrenergic receptor (Homo sapiens, UniProt P08588); test: Compound was tested for its binding affinity against Beta-1 adrenergic receptor in CHO cell membrane using [125I]iodocyanopindolol as the radioligand.; type: cell membranes
[6] = target: T1, Beta-3 adrenergic receptor; test: Compound was tested for its ability to stimulate adenylyl cyclase activity in CHO-beta-3 adrenergic receptor cell membrane.; type: functional
Target sequence in this assay (P13945 whole entry): as above

Sequence of Beta-2 adrenergic receptor (P07550 whole entry): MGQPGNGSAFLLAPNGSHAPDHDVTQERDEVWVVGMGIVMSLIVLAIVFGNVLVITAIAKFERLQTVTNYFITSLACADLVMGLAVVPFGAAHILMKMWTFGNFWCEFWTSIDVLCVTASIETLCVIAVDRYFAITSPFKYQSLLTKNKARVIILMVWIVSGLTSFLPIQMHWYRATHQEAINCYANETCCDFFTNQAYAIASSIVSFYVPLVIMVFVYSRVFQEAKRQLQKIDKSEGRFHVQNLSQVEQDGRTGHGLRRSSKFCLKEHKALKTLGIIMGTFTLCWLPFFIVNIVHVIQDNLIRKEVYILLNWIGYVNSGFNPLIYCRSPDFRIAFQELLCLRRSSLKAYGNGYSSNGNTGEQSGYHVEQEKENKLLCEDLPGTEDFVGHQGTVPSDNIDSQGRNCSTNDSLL
Sequence of Beta-1 adrenergic receptor (P08588 whole entry): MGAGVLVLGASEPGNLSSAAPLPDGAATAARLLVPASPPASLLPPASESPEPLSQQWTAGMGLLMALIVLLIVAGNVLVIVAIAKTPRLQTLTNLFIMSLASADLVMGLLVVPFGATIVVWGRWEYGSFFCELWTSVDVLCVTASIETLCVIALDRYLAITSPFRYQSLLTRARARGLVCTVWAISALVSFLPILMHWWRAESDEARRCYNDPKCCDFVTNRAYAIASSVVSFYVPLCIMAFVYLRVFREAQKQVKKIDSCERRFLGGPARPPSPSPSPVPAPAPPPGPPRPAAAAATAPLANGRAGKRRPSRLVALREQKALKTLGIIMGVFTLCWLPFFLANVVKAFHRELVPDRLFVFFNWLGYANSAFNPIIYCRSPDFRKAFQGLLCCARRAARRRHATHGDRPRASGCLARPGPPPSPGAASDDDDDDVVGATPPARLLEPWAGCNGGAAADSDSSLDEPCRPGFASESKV

Compound | pKi [1] | pKi [2] | IA [3] | pEC50 [4] | pKi [5] | pEC50 [6]
C[C@H](Cc1ncc(CCC(=O)O)s1)NC[C@H](O)COc1ccccc1 | 5.91 | 5.45 | 0.56 | 5.56 | 5.46 | –
C[C@H](Cc1ccc(OCC(=O)O)cc1)NC[C@H](O)c1cccc(Cl)c1 | – | – | 0.67 | – | – | –
O=C(O)COc1ccc(OCCNC[C@H](O)COc2ccccc2)cc1 | – | 6.28 | 0.71 | – | – | 6.26
C[C@H](Cc1ncc(CCCCC(=O)O)s1)NC[C@H](O)COc1ccccc1 | 6.82 | 6.41 | inactive | – | 6.36 | –
C[C@H](Cc1ncc(CCCC(=O)O)s1)NCC(O)c1cccc(Cl)c1 (stereo partly specified) | 4.86 | 4.44 | – | – | 5.19 | –
C[C@H](Cc1ncc(CCCC(=O)O)s1)NC[C@H](O)COc1ccccc1 | 5.80 | 6.12 | 0.72 | 6.20 | 5.89 | –
C[C@H](Cc1ncc(CCC(=O)O)s1)NCC(O)c1cccc(Cl)c1 (stereo partly specified) | 4.94 | 3.84 | 0.39 | 4.56 | 4.24 | –
